{"source": "patent US8895579B2", "about": "“Heterotricyclic AMPA receptor antagonists for treatment of epilepsy, pain, and other neurological disorders and diseases” (Northwestern University, priority 2010, dated 2014)", "key": {"[1]": {"biological_target": "T1, heteromeric GluA1/GluA2 AMPA receptor (Rattus norvegicus, UniProt P19490+P19491)", "T1 construct": "expressed in transfected cells; host or cells: HEK293-T/17 (CRL-11268)", "T1 sequence (P19490 19-907 isoform P19490-2 limits assumed)": "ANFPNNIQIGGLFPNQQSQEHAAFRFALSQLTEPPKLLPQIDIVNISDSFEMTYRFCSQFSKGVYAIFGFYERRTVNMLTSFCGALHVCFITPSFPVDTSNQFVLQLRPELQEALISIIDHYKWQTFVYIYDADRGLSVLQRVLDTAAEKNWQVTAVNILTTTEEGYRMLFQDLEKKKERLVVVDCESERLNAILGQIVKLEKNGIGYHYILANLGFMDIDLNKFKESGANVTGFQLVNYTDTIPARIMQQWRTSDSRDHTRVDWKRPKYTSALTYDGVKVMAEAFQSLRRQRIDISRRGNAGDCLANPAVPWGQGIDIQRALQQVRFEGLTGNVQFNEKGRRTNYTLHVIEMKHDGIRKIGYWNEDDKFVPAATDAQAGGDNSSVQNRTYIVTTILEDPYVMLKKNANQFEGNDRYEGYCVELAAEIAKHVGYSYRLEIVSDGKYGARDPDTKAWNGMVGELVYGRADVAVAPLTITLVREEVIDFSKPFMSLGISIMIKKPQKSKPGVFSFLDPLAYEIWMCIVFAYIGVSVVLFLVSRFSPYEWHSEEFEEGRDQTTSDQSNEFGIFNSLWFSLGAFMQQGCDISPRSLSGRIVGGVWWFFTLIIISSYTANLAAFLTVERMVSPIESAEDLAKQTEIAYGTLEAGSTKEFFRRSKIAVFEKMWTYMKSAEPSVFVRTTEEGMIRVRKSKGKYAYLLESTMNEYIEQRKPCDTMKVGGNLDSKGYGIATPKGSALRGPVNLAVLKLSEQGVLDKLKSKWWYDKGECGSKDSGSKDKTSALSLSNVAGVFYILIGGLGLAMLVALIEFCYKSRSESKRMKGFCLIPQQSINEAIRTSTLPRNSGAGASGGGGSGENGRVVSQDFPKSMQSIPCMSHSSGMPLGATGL", "T1 sequence (P19491 22-883 isoform P19491-2 limits assumed)": "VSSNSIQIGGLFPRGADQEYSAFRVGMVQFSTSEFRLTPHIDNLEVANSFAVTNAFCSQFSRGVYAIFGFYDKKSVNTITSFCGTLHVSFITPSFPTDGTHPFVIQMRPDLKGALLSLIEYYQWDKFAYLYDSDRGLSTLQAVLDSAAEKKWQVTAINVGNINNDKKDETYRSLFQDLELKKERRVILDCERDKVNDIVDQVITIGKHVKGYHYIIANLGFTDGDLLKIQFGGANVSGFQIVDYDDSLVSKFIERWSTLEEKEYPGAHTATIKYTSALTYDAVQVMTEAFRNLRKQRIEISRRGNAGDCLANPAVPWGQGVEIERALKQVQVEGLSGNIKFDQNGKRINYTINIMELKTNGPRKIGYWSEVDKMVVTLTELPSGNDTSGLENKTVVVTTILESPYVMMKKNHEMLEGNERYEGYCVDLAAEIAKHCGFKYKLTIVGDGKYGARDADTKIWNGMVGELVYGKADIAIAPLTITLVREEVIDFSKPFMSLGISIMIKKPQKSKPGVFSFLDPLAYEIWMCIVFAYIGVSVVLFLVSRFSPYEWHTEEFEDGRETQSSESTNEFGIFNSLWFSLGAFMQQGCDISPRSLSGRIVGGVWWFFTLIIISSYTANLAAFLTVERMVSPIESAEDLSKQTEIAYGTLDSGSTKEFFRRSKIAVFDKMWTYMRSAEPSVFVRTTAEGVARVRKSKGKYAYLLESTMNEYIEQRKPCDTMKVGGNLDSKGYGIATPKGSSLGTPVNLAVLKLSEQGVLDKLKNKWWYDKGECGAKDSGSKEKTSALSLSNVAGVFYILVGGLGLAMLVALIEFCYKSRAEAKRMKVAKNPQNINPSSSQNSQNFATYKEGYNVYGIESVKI", "experiment": "Whole-cell patch clamp of recombinant GluA1/GluA2 receptors in HEK293-T/17 cells", "assay_type": "cell-based", "description": "Cell Culture and Transfection. Human embryonic kidney cells expressing T-antigen, clone 17 (HEK293-T/17) (CRL-11268) were cultured at 37° C. with 5% CO2 in DMEM, including 100 μg/mL penicillin, 100 μg/mL streptomycin, and 10% heat-inactivated fetal bovine serum. Cells were split twice per week. For transfection, HEK293-T/17 cells were plated at 3×10^4 cells/cm^2 for pharmacology experiments and 5×10^3 cells/cm^2 for physiology experiments in fresh medium 24 h prior to transfection. Cells were transfected with AMPA or KA receptor plasmid cDNAs using Mirus Trans-IT transfection reagent (Minus Bio Corporation, Madison, Wis.) at a ratio of 1 μg cDNA: 3 μL Trans-1T reagent and maintained in transfection medium overnight followed by a media change the next day. Transfected cells were maintained in this medium until the experiment was conducted (48-72 h total post transfection).\nElectrophysiology. For analysis of recombinant receptors, HEK293-T/17 cells were co-transfected with 0.2 μg of iGluR cDNA and 0.05 μg of eGFP. For heterologous GluA1/GluA2 receptors, the GluA1:GluA2 cDNA ratio was 1:6. Two to three days post-transfection, eGFP-expressing cells were lifted from the cover slip and voltage clamped in whole cell mode. The internal solution contained (in mM) 30 CsF, 110 CsCl, 10 HEPES, 4 NaCl, 5 EGTA and 0.5 CaCl2 (pH 7.3), while the extracellular solution contained (in mM) 140 NaCl, 10 glucose, 10 Cs-HEPES, 3 KCl, 2 CaCl2 and 1 MgCl2 (pH 7.3). Borosilicate patch electrodes were pulled and fire polished to 2-3 MO resistance. Lifted cells were maintained in a laminar stream of extracellular solution from a triple-barreled flow pipe, which was rapidly translated using a piezoceramic bimorph for fast application of glutamate or kainate alone or in combination with various antagonists (the 10-90% rise time of glutamate-evoked currents was ˜1 ms). IKM compounds were applied for three minutes with analysis performed on the final one minute of drug application.\nStatistical analysis. At least three separate experiments were performed for each assay. […]"}, "[2]": {"tested_on": "primary hippocampal neurons", "experiment": "In vitro model of status epilepticus (Mg2+ removal, 2 μM glycine), action potential firing in hippocampal neurons", "assay_type": "cell-based", "description": "Experiments involving primary hippocampal neurons were carried out as described previously (Vivithanaporn et al., 2007). Dissociated neurons were cultured from E18 prenatal hippocampi and were used for analysis from between 17 and 28 days in vitro. The extracellular solution was the same as used for recombinant receptor analysis, while the internal solution for voltage clamp recordings contained (in mM) 95 CsF, 25 CsCl, 10 Cs-HEPES, 10 EGTA, 2 NaCl, 2 Mg-ATP, 10 QX-314, 5 TEA. and 5 4-AP (pH 7.3) and the internal solution for current clamp recordings contained (in mM) 120 KMeSO4, 5 KCl, 5 NaCl, 1 MgCl2, 11 Na-HEPES, 10 phosphocreatine, 4 Na-ATP, and 0.3 Na-GTP (pH 7.0). Borosilicate patch electrodes were pulled and fire polished to 3-5 MΩ resistance. Both whole cell current clamp and voltage clamp recordings were performed using an Axopatch 200B amplifier (MDS, Sunnyvale, Calif.) and filtered at 20 kHz. Gigaohm seals were established in voltage clamp mode and, after membrane rupture, the recordings were carried out either in voltage clamp (clamped at Vm=−70 mV) with a […] series resistance, which was compensated to ˜60%, or in current clamp mode ([…]) with the bridge balance was corrected and pipette resistance neutralized. In vitro status epilepticus (SE) was induced as described previously (Deshpande et al., 2007; Pal et al., 1999) and action potentials were recorded in current clamp mode. Briefly for in vitro SE, magnesium-containing external solution was exchanged for external solution without magnesium and supplemented with 2 μM glycine. This solution exchange produced a period of rapid depolarization and increased AP firing, followed by a period of channel inactivation and reduced AP firing. After channel inactivation, neurons characteristically would hyperpolarize to hold at a membrane voltage (Vm) which was depolarized relative to control Vm, with an increase in AP firing frequency. […] External solutions were bath-applied at a flow rate of 1.5-2 ml/minute. After recording a basal control period, IKM compounds were applied for five minutes (10 minutes for in vitro SE experiments) and changes in excitatory post-synaptic current (EPSC) charge transfer or action potential (AP) frequency were analyzed during the last two minutes of IKM application.\nSeveral AMPA receptor selective antagonists reduce neuronal hyperactivity in both acute brain slice preparations and in in vitro models of epilepsy (Grasso et al., 1999; Szabados et al., 2001). […] We therefore tested the efficacy of IKM-159 in reducing the hyperactive neuronal phenotype in dissociated hippocampal neurons using an in vitro model of status epilepticus (SE) (Deshpande et al., 2007; Pal et al., 1999). […]"}}}
{"compound": "O=C(O)C[C@@]12O[C@H]3C=CCN[C@H]3C1CN[C@H]2C(=O)O", "note": "(stereo partly drawn) [IKM-159]", "values": [{"measurement": "IC50", "setting": "[1]", "value": "26 ± 2", "unit": "µM"}, {"measurement": "GluA1/GluA2 peak amplitude as percent of basal peak amplitude", "setting": "[1]; 30 μM, 10 mM glutamate", "value": "56±5", "unit": "%"}, {"measurement": "reduction in GluA1/GluA2 peak current amplitude", "setting": "[1]; 30 μM, 10 mM glutamate", "value": "44±5", "unit": "%"}, {"measurement": "AP firing frequency in SE condition with compound", "setting": "[2]; 3 μM, SE condition 5.7±1.2 Hz, n.s.", "value": "4.3±1.7", "unit": "Hz"}, {"measurement": "AP firing frequency upon wash out of compound", "setting": "[2]; 20 μM, 10 minutes after removal", "value": "1.0±0.3", "unit": "Hz"}, {"measurement": "AP firing frequency in SE condition with compound", "setting": "[2]; 20 μM, SE condition 2.3±0.4 Hz", "value": "0.9±0.3", "unit": "Hz"}]}
